Patent US10813929B2, “Treating cancer with ATR inhibitors” (VERTEX PHARMACEUTICALS INCORPORATED, priority 2011, dated 2020)

Key:
[1] = tested on: PSN-1, MiaPaCa-2 and PancM cells; experiment: Clonogenic survival assay, pancreatic cancer cells; format: cell-based
Protocol: PSN-1 cells were plated as single cells, treated with 1 μM VE-821 at different time points in relation to 4 Gy irradiation and assessed for colony formation after 10 days. The survival fraction at 4 Gy for each of the treatment schedules was determined by taking into account the relevant plating efficiency of unirradiated cells. Cells were treated with 1 μM VE-821 4 h after plating and 1 h prior to irradiation. Drug was removed after 72 h and colony-forming ability was assessed after 10 to 21 days. (n=3). *, P<0.05; **, P<0.01 over DMSO-treated control. A) clonogenic survival curves of cells treated with 1 μM VE-821 and irradiation under hypoxic conditions. Plated cells were transferred to hypoxia (0.5% O2) and acclimatised for 6 h. VE-821 (1 μM) was then added at 1 h prior to irradiation and left for 72 h upon which the medium was replaced. Cells were transferred to normoxia at 1 h post-irradiation. B) clonogenic survival of cells after irradiation with 6 Gy and treatment with 1 μM VE-821 in oxic and hypoxic (0.5% O2) conditions, as described above and in FIG. 1 (n=3). *, P<0.05; **, P<0.01; ***, P<0.001 over DMSO-treated control. A) clonogenic survival of cells treated with gemcitabine and 1 μM VE-821. Cells were treated with increasing concentrations of gemcitabine for 24 h followed by 72 h treatment of 1 μM VE-821. Colony forming ability was assessed after 10 to 21 days. B) clonogenic survival of cells treated with gemcitabine in hypoxia. Plated cells were transferred to hypoxia (0.5% O2) and acclimatised for 6 h. Cells were then treated with increasing concentrations of gemcitabine for 24 h followed by 72 h treatment of 1 μM VE-821. Hypoxic cells were transferred to normoxia 1 h after VE-821 addition. C) clonogenic survival after treatment with 20 nM gemcitabine and VE-821 in oxic and hypoxic (0.5% O2) conditions, as described above. D) clonogenic survival of cells treated with gemcitabine and irradiation. PSN-1 and MiaPaCa-2 cells were treated with 5 nM or 10 nM gemcitabine, respectively, for 24 h, medium was then replaced and 1 μM VE-821 was added from 1 h prior to 72 h post 4 Gy irradiation. Colony forming ability was assessed after 10 to 21 days (n=3). *, P<0.05; **, P<0.01; ***, P<0.001 over DMSO-treated control. Logarithmically growing cells were plated in triplicate in 6-well tissue culture dishes under oxic (21% O2) or hypoxic conditions (0.5% O2) using an InVivo2 300 chamber (Ruskinn Technology, UK). […] Cells were incubated for 10-21 days until colonies were stained with 0.5% crystal violet and counted in a CellCount automated colony counter (Oxford Optronix). Clonogenic survival was calculated and data were fitted in the GraphPad Prism 4.0 (GraphPad Software, CA).

[2] = tested on: pancreatic cancer cell lines; experiment: Pancreatic cancer cell screen, CellTiter-Glo cell viability assay; format: cell-based
Protocol: All cell lines were seeded in 30 μl of tissue culture medium containing 10% FBS into 384-well opaque-bottom plates. The seeding density was based on the logarithmic growth rate of each cell line. After 24 hours, compound stock solutions were added to each well to afford a matrix consisting of 9 concentrations for VE-822 and 7 concentrations for Gemcitabine and Cisplatin. Each well contains either, agent alone or a combination of both agents. The final concentration ranges were as follows: VE-822, 0.3 nM-2 μM; Gemcitabine, 0.3 nM-0.22 μM; Cisplatin, 30 nM-20 μM. The cells were then incubated for 96 hours at 37° C. in an atmosphere of 5% CO2 and 95% humidity.
This assay measures the number of viable cells in a culture based on the quantitation of ATP, which is present in metabolically active cells.
CellTiter-Glo Reagent (Promega, Madison, Wis., USA) was prepared according to the manufacturer's instructions and added 96 hours after compound addition (25 μl/well) to measure cell viability. Luminescence signal was measured with the PHERAStarFS (BMG Labtech, Cary, N.C., USA) automated plate reader. […]
Raw luminescence CellTiter-Glo (CTG) values were normalized to the mean CTG value for the negative control DMSO-treated samples on each assay plate. IC50 values for chemotoxic alone were calculated using DMSO-normalized cell survival values for the samples treated with chemotoxic compound alone. […]

SMILES | radiosensitisation under hypoxic conditions (clonogenic survival) ([1]; 1 μM VE-821, hypoxia 0.5% O2, FIG. 2 panels A-B) | sensitisation to gemcitabine (clonogenic survival) ([1]; 1 μM VE-821 for 72 h after 24 h gemcitabine, oxic and hypoxic (0.5% O2), FIG. 3 panels B-C) | potentiation of chemoradiation (clonogenic survival) ([1]; PSN-1 and MiaPaCa-2, 5 or 10 nM gemcitabine, 1 μM VE-821, 4 Gy, FIG. 3 panel D) | surviving fraction after irradiation ([1]; PSN-1 cells, 1 μM VE-821, 4 Gy, effect increased as drug incubation time after irradiation was extended, FIG. 1 panel C) | synergy with cisplatin and gemcitabine in pancreatic cancer cell lines ([2]; maximum shift in IC50 of each chemotoxic, 96 hours, FIG. 18) | synergy (shift in IC50 of chemotoxic) in pancreatic cancer cell lines ([2]; with chemotoxics, FIG. 19)
CS(=O)(=O)c1ccc(-c2cnc(N)c(C(=O)Nc3ccccc3)n2)cc1 [VE-821] | radiosensitises tumour PSN-1, MiaPaCa-2 and PancM cells under hypoxic conditions | sensitises normoxic and hypoxic cancer cells to gemcitabine | potentiates the effect of chemoradiation | a decrease in surviving fraction was observed | – | –
CNCc1ccc(-c2cc(-c3nc(-c4ccc(S(=O)(=O)C(C)C)cc4)cnc3N)on2)cc1 [VE-822] | – | – | – | – | Synergizes with Cisplatin and Gemcitabine | Greater than 3 fold
